Experimental data taken from ChEMBL document CHEMBL1201862, “PubChem BioAssay data set” (2004).
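Following 48 hours of exposure in 96-well plates, responses at five concentrations were used to interpolate endpoints linearly. GI50 marks 50% less growth.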 Active and inactive are the calls of the source. No stated cut-off is given here; in the data, active = GI50 up to about 1.1 µM and inactive = higher.

Assays:
Assay in all cases: DTP human tumour cell line panel, 48 h
[1] = system: A498
[2] = system: SNB-19
[3] = system: HT-29
[4] = system: CAKI-1
[5] = system: HCC 2998
[6] = system: NCI/ADR-RES
[7] = system: ACHN
[8] = system: Malme-3M
[9] = system: BT-549
[10] = system: SF-295
[11] = system: SK-MEL-2
[12] = system: M14
[13] = system: UO-31
[14] = system: DU-145
[15] = system: OVCAR-4
[16] = system: SK-MEL-28
[17] = system: SW-620
[18] = system: IGROV-1
[19] = system: T47D
[20] = system: 786-0
[21] = system: NCI-H460
[22] = system: OVCAR-8
[23] = system: EKVX
[24] = system: MCF7
[25] = system: SR
[26] = system: UACC-62
[27] = system: LOX IMVI
[28] = system: K562
[29] = system: SN12C
[30] = system: COLO 205
[31] = system: KM12
[32] = system: SNB-75
[33] = system: OVCAR-3
[34] = system: MDA-MB-435
[35] = system: HOP-62
[36] = system: PC-3
[37] = system: SF-539
[38] = system: HL-60
[39] = system: U-251
[40] = system: MOLT-4
[41] = system: OVCAR-5
[42] = system: RPMI-8226
[43] = system: SK-MEL-5
[44] = system: CCRF-CEM
[45] = system: NCI-H226
[46] = system: SK-OV-3
[47] = system: HCT-116
[48] = system: A549
[49] = system: HCT-15
[50] = system: TK-10
[51] = system: NCI-H522
[52] = system: Hs-578T
[53] = system: MDA-MB-231
[54] = system: NCI-H23
[55] = system: SF-268
[56] = system: MDA-N
[57] = system: UACC-257
[58] = system: HOP-92
[59] = system: RXF 393

For `O=S(=O)(CCn1c(Sc2ccccc2)c(Sc2ccccc2)c2ccccc21)c1ccccc1`, the GI50 [1] was > 100 µM (inactive), the GI50 [2] was > 100 µM (inactive) and the GI50 [3] was > 100 µM (inactive). For the same compound, the GI50 [4] was 55.8 µM (inactive), the GI50 [5] was > 100 µM (inactive) and the GI50 [6] was > 100 µM (inactive). The GI50 [7] was > 100 µM (inactive), the GI50 [8] was > 100 µM (inactive) and the GI50 [9] was > 100 µM (inactive). For the same compound, the GI50 [10] was > 100 µM (inactive), the GI50 [11] was > 100 µM (inactive) and the GI50 [12] was > 100 µM (inactive). The GI50 [13] was > 100 µM (inactive), the GI50 [14] was > 100 µM (inactive) and the GI50 [15] was > 100 µM (inactive). For the same compound, the GI50 [16] was > 100 µM (inactive), the GI50 [17] was > 100 µM (inactive) and the GI50 [18] was > 100 µM (inactive). The GI50 [19] was > 100 µM (inactive), the GI50 [20] was > 100 µM (inactive) and the GI50 [21] was > 100 µM (inactive). For the same compound, the GI50 [22] was > 100 µM (inactive), the GI50 [23] was > 100 µM (inactive) and the GI50 [24] was > 100 µM (inactive). For the same compound, the GI50 [25] was > 100 µM (inactive), the GI50 [26] was > 100 µM (inactive) and the GI50 [27] was > 100 µM (inactive). For the same compound, the GI50 [28] was > 100 µM (inactive), the GI50 [29] was > 100 µM (inactive) and the GI50 [30] was > 100 µM (inactive). For the same compound, the GI50 [31] was > 100 µM (inactive), the GI50 [32] was > 100 µM (inactive) and the GI50 [33] was > 100 µM (inactive). The GI50 [34] was > 100 µM (inactive), the GI50 [35] was > 100 µM (inactive) and the GI50 [36] was > 100 µM (inactive). The GI50 [37] was > 100 µM (inactive), the GI50 [38] was > 100 µM (inactive) and the GI50 [39] was > 100 µM (inactive). For the same compound, the GI50 [40] was > 100 µM (inactive), the GI50 [41] was > 100 µM (inactive) and the GI50 [42] was > 100 µM (inactive). For the same compound, the GI50 [43] was > 100 µM (inactive), the GI50 [44] was > 100 µM (inactive) and the GI50 [45] was > 100 µM (inactive). The GI50 [46] was > 100 µM (inactive), the GI50 [47] was > 100 µM (inactive) and the GI50 [48] was > 100 µM (inactive). For the same compound, the GI50 [49] was greater than 100 µM, the GI50 [50] was > 100 µM (inactive) and the GI50 [51] was > 100 µM (inactive). The GI50 [52] was 40.5 µM (inactive), the GI50 [53] was > 100 µM (inactive) and the GI50 [54] was > 100 µM (inactive). For the same compound, the GI50 [55] was > 100 µM (inactive).

`COc1ccc(NC(C)=O)cc1N1C(=O)/C(=C\c2cc(OC)c(OC)c(OC)c2)SC1c1ccccc1` (configuration not stated) was tested, and the GI50 [1] was 75 µM (inactive), the GI50 [2] was 83.4 µM (inactive) and the GI50 [3] was 47.1 µM (inactive). For the same compound, the GI50 [4] was 19 µM (inactive), the GI50 [5] was > 100 µM (inactive) and the GI50 [6] was 45.6 µM (inactive). For the same compound, the GI50 [7] was 44.4 µM (inactive), the GI50 [8] was 47 µM (inactive) and the GI50 [9] was 97.5 µM (inactive). For the same compound, the GI50 [10] was 52 µM (inactive), the GI50 [11] was 57.9 µM (inactive) and the GI50 [12] was 49.8 µM (inactive). For the same compound, the GI50 [13] was 22.1 µM (inactive), the GI50 [14] was 91.4 µM (inactive) and the GI50 [56] was 25.5 µM (inactive). For the same compound, the GI50 [15] was 39 µM (inactive), the GI50 [16] was 41.9 µM (inactive) and the GI50 [17] was 52.7 µM (inactive). For the same compound, the GI50 [18] was 23.8 µM (inactive), the GI50 [19] was 33.5 µM (inactive) and the GI50 [57] was 67.9 µM (inactive). The GI50 [20] was 54 µM (inactive), the GI50 [21] was 43.2 µM (inactive) and the GI50 [22] was 48.1 µM (inactive). The GI50 [23] was 24.9 µM (inactive), the GI50 [24] was 28.2 µM (inactive) and the GI50 [25] was 27.8 µM (inactive). The GI50 [26] was 67.9 µM (inactive), the GI50 [27] was 39.3 µM (inactive) and the GI50 [28] was 30.9 µM (inactive). For the same compound, the GI50 [29] was 40.2 µM (inactive), the GI50 [30] was 39.6 µM (inactive) and the GI50 [31] was 40.6 µM (inactive). For the same compound, the GI50 [32] was 26.9 µM (inactive), the GI50 [33] was 36.1 µM (inactive) and the GI50 [34] was 36 µM (inactive). The GI50 [35] was 63.7 µM (inactive), the GI50 [58] was 29.5 µM (inactive) and the GI50 [36] was 31.5 µM (inactive). The GI50 [37] was 64.6 µM (inactive), the GI50 [38] was 20.4 µM (inactive) and the GI50 [39] was 34.7 µM (inactive). For the same compound, the GI50 [40] was 19.3 µM (inactive), the GI50 [41] was > 100 µM (inactive) and the GI50 [42] was 17.4 µM (inactive). For the same compound, the GI50 [43] was 33.7 µM (inactive), the GI50 [59] was 33.5 µM (inactive) and the GI50 [44] was 37 µM (inactive). For the same compound, the GI50 [45] was 50.9 µM (inactive), the GI50 [46] was 82.2 µM (inactive) and the GI50 [47] was 30 µM (inactive). The GI50 [48] was 57.8 µM (inactive), the GI50 [49] was 38.1 µM and the GI50 [50] was > 100 µM (inactive). The GI50 [51] was 28.6 µM (inactive), the GI50 [53] was 19.4 µM (inactive) and the GI50 [54] was 72.8 µM (inactive).
